Experimental data: ChEMBL document CHEMBL5154829, “Discovery and biological evaluation of tanshinone derivatives as potent dual inhibitors of indoleamine 2, 3-dioxygenase 1 and tryptophan 2, 3-dioxygenase” (Eur J Med Chem, 2022)
Calls of active or inactive are those of the source. The rule behind the calls is not given here.

Legend:
[1] = biological target: T1, Indoleamine 2,3-dioxygenase 1 (Homo sapiens, UniProt P14902); assay: Non-competitive inhibition of recombinant human IDO1 measured by UV/visible spectrophotometric method
Target sequence in this assay (P14902 whole entry, looked up): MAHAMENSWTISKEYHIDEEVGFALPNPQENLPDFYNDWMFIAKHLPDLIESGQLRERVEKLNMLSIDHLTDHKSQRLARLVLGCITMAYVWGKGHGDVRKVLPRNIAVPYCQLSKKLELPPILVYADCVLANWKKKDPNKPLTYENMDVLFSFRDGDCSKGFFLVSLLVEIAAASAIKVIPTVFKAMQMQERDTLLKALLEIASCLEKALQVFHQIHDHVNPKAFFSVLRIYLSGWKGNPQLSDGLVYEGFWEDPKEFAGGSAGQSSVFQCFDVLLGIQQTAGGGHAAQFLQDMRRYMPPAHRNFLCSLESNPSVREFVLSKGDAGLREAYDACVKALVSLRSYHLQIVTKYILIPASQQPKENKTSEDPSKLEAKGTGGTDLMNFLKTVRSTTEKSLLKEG

[2] = tested on: HeLa; assay: Induction of apoptosis in IFNgamma-stimulated human HeLa cells assessed apoptotic cells at 5 uM measured after 12 hrs by Annexin V-FITC/PI based flow cytometry analysis; format: functional
[3] = biological target: T2, Tryptophan 2,3-dioxygenase (Homo sapiens, UniProt P48775); assay: Competitive inhibition of recombinant human TDO measured by surface plasmon resonance assay
Target sequence in this assay (P48775 whole entry): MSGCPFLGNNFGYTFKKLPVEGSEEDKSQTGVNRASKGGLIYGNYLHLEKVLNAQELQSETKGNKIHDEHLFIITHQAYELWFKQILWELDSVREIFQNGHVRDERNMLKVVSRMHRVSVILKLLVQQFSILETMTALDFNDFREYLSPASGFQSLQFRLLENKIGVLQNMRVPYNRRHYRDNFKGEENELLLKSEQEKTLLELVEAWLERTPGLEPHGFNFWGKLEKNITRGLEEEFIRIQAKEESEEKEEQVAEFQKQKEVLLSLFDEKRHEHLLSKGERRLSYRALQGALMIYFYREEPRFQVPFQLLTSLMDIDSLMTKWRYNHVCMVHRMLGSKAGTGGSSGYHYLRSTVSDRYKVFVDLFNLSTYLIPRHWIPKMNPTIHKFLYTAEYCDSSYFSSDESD

[4] = biological target: T1, Indoleamine 2,3-dioxygenase 1; assay: Inhibition of recombinant human IDO1 assessed as reduction in N-formylkynurenine formation using L-tryptophan as substrate and measured after 15 mins
Target sequence in this assay (P14902 whole entry): as the sequence (P14902 whole entry, looked up) above

[5] = biological target: T2, Tryptophan 2,3-dioxygenase; assay: Competitive inhibition of recombinant human TDO measured by UV/visible spectrophotometric method
Target sequence in this assay (P48775 whole entry, looked up): as the sequence (P48775 whole entry) above

[6] = biological target: T2, Tryptophan 2,3-dioxygenase; assay: Inhibition of recombinant human TDO assessed as reduction in N-formylkynurenine formation using L-tryptophan as substrate and measured after 15 mins
Target sequence in this assay (P48775 whole entry): as above

[7] = tested on: HeLa; assay: Induction of apoptosis in human HeLa cells assessed apoptotic cells at 5 uM measured after 12 hrs by Annexin V-FITC/PI based flow cytometry analysis; format: functional
[8] = tested on: HeLa; assay: Induction of apoptosis in human HeLa cells assessed apoptotic cells at 5 uM measured after 6 hrs by Annexin V-FITC/PI based flow cytometry analysis; format: functional, cell-based
[9] = biological target: T1, Indoleamine 2,3-dioxygenase 1; assay: Non-competitive inhibition of recombinant human IDO1 measured by surface plasmon resonance assay
Target sequence in this assay (P14902 whole entry): as the sequence (P14902 whole entry, looked up) above

[10] = tested on: HeLa; assay: Induction of apoptosis in human HeLa cells assessed as increase in Bax/Bcl-2 ratio at 1 to 10 uM measured by western blot analysis; format: functional, cell-based; conditions: dose 1-10 µM
[11] = Cytotoxicity against human HEK-293T cells; format: toxicity, cell-based
[12] = Hemolytic activity in rat RBC at 500 uM incubated for 30 mins; format: toxicity, cell-based, Erythrocyte; conditions: rat red blood cells (erythrocytes), read-out: Activity
[13] = tested on: HeLa; assay: Induction of apoptosis in human HeLa cells assessed apoptotic cells at 10 uM measured after 24 hrs by Annexin V-FITC/PI based flow cytometry analysis; format: functional
[14] = tested on: HeLa; assay: Induction of apoptosis in human HeLa cells assessed as decrease in Bcl-2 expression at 1 to 10 uM measured by western blot analysis; format: functional, cell-based; conditions: dose 1-10 µM
[15] = tested on: HeLa; assay: Induction of apoptosis in human HeLa cells assessed as increase in Bax expression at 1 to 10 uM measured by western blot analysis; format: functional, cell-based; conditions: dose 1-10 µM
[16] = biological target: T2, Tryptophan 2,3-dioxygenase; assay: Inhibition of TDO in human HEK293 cells assessed as reduction in kynurenine formation using L-tryptophan as substrate by absorbance based analysis; format: cell-based
Target sequence in this assay (P48775 whole entry): as the sequence (P48775 whole entry) above

[17] = biological target: T1, Indoleamine 2,3-dioxygenase 1; assay: Inhibition of IDO1 in IFNgamma-stimulated human HeLa cells assessed as reduction in kynurenine formation using L-tryptophan as substrate by absorbance based analysis; format: cell-based
Target sequence in this assay (P14902 whole entry): as the sequence (P14902 whole entry, looked up) above

| IC50 [4] [nM] | IC50 [6] [nM] | IC50 [16] [nM] | IC50 [17] [nM] | Compound | also measured |
| --- | --- | --- | --- | --- | --- |
| 70 | 160 | 1870 | 270 | CC(=O)OCc1coc2c1C(=O)C(=O)c1c-2ccc2c1C=CC(=O)C2(C)C | inhibition [1]: Active; Activity [2]: 68.6%; Ki [3]: 730 nM; inhibition [5]: Active; Activity [7]: 39.9%; Activity [8]: Active; Ki [9]: 230 nM; Activity [10]: Active; IC50 [11]: > 10000 nM; hemolysis at 0.5 h, 500 µM [12]: 10%; Activity [13]: 92.8%; Activity [14]: Active; Activity [15]: Active |
| 220 | 450 | 1420 | 2560 | CC1(C)C(=O)C=Cc2c1ccc1c2C(=O)C(=O)c2c(CO)coc2-1 |  |
|  | 16100 | 10400 |  | NS(=O)(=O)NCCNc1nonc1C(=NO)Nc1ccc(F)c(Br)c1 [EPACADOSTAT] |  |
| > 10000 | > 10000 |  |  | CC(=O)Oc1c(OC(C)=O)c2c(C)coc2c2ccc3c(c12)CCCC3(C)C |  |
| > 10000 | > 10000 |  |  | Cc1coc2c1C(=O)C(=O)c1c-2ccc2c1CCCC2(C)C [TANSHINONE IIA] |  |
| > 10000 | > 10000 |  |  | Cc1c[nH]c2c1C(=O)C(=O)c1c-2ccc2c1CCCC2(C)C |  |
| 1500 | 710 | 8100 | > 10000 | Cc1coc2c1C(=O)C(=O)c1c-2ccc2c1C(Br)CCC2(C)C (configuration not stated) |  |
| > 10000 | > 10000 |  |  | COC(=O)c1coc2c1C(=O)C(=O)c1c-2ccc2c1C=CC(=O)C2(C)C |  |
| 810 | 1210 | > 10000 | 5100 | Cc1coc2c1C(=O)C(=O)c1c-2ccc2c1CC[C@H](OS(C)(=O)=O)C2(C)C |  |
| > 10000 | > 10000 |  |  | Cc1coc2c1c(=O)oc(=O)c1c3c(ccc12)C(C)(C)CCC3 |  |
| > 10000 | > 10000 |  |  | Cc1coc2c1C(=O)C(=O)c1c-2ccc2c1C=CCC2(C)C |  |
| 140 | 110 | 340 | 680 | CC1(C)C(=O)C=Cc2c1ccc1c2C(=O)C(=O)c2c(CCl)coc2-1 |  |
| 3270 | 9540 | > 10000 | > 10000 | CCN(CC)C(=O)c1coc2c1C(=O)C(=O)c1c-2ccc2c1C=CC(=O)C2(C)C |  |
| 5120 | 2700 | > 10000 | > 10000 | Cc1coc2c1C(=O)C(=O)c1c-2ccc2c1CC[C@H](O)C2(C)C |  |
| 400 | 370 | 2800 | > 10000 | CC(=O)O[C@H]1CCc2c(ccc3c2C(=O)C(=O)c2c(C)coc2-3)C1(C)C |  |
| 360 | 940 | > 10000 | > 10000 | Cc1coc2c1C(=O)C(=O)c1c-2ccc2c1CCC(=O)C2(C)C |  |

| IC50 [4] [nM] | IC50 [6] [nM] | IC50 [16] [nM] | IC50 [17] [nM] | Compound | also measured |
| --- | --- | --- | --- | --- | --- |
| > 10000 | > 10000 |  |  | C[C@@H](CO)C1=C(O)C(=O)c2c(ccc3c2CCCC3(C)C)C1=O |  |
| 160 | 200 | 3130 | 450 | CC1(C)C(=O)CCc2c1ccc1c2C(=O)C(=O)c2c(CO)coc2-1 |  |
| 590 | 1010 | 950 | 1670 | CC1(C)c2ccc3c(c2CC[C@@H]1O)C(=O)C(=O)c1c(CO)coc1-3 |  |
| 490 | 1480 | > 10000 | > 10000 | Cc1coc2c1C(=O)C(=O)c1c-2ccc2c1C(=O)C(O)CC2(C)C (configuration not stated) |  |
| 4570 | > 10000 | > 10000 | 8550 | CC1(C)C(=O)C=Cc2c1ccc1c2C(=O)C(=O)c2c(C(=O)O)coc2-1 |  |
| > 10000 | > 10000 |  |  | Cc1c(Br)oc2c1C(=O)C(=O)c1c-2ccc2c1CCCC2(C)C |  |
| 420 | 570 | 730 | 650 | CC1(C)C(=O)C=Cc2c1ccc1c2C(=O)C(=O)c2c(CF)coc2-1 |  |
| 1070 | 450 | 7180 | > 10000 | CC1(C)CCCc2c1ccc1c2C(=O)C(=O)c2c(CO)coc2-1 [PRZEWAQUINONE A] |  |
| > 10000 | > 10000 |  |  | CC1(C)C(=O)C=Cc2c1ccc1c2C(=O)C(=O)c2c(C=O)coc2-1 |  |
| 750 | 1840 | 1910 | 1870 | CC(=O)O[C@H]1CCc2c(ccc3c2C(=O)C(=O)c2c(CO)coc2-3)C1(C)C |  |
| > 10000 | > 10000 |  |  | C[C@@H](C=O)C1=C(O)C(=O)c2c(ccc3c2CCCC3(C)C)C1=O |  |
| 980 | 960 | > 10000 | 9330 | Cc1coc2c1C(=O)C(=O)c1c-2ccc2c1C=CC(=O)C2(C)C |  |
| 2880 | 1010 | > 10000 | > 10000 | Cc1coc2c1C(=O)C(=O)c1c-2ccc2c1C(=O)C(O)=CC2(C)C |  |
| 670 | 2420 | 2060 | 2420 | CC(=O)OCc1coc2c1C(=O)C(=O)c1c-2ccc2c1CC[C@H](O)C2(C)C |  |
| 1730 | 670 | 860 | 810 | CC(=O)OCc1coc2c1C(=O)C(=O)c1c-2ccc2c1CCC(=O)C2(C)C |  |

| Compound | IC50 [4] [nM] | IC50 [6] [nM] | IC50 [16] [nM] | IC50 [17] [nM] | also measured |
| --- | --- | --- | --- | --- | --- |
| C[C@H]1COC2=C1C(=O)C(=O)c1c2ccc2c1CCCC2(C)C [CRYPTOTANSHINONE] | 10000 | 9800 |  |  |  |
